# Measured values: patent US20230263905A1, “SONOSENSITIVE LIPOSOME AND METHOD FOR PREPARING SAME” (IMGT CO, LTD., priority 2020, published 2023)
# Tested on: MDA-MB-231 cell line
# Test: Cancer cell death effect, MTT assay
# Assay type: cell-based
# Conditions: not irradiated with ultrasound; 2-10 μg/mL doxorubicin, 3 hours treatment, 72 hours culture; FIG. 9
# Protocol: To compare and analyze a cell death effect of the sonosensitive liposome according to the presence/absence of ultrasound irradiation, cancer cell death effects were compared and analyzed according to the presence/absence of ultrasound irradiation using the sonosensitive liposomes of Example 1. An MDA-MB-231 cell line which is a triple-negative breast cancer cell line was used as cancer cells. The MDA-MB-231 cell line was seeded in each well of a 96-well plate at a concentration of 10,000 cells/mL, and then cultured overnight. The cell culture was cultured in a culture broth containing 10% fetal bovine serum (FBS) and 1% antibiotic in Dulbecco's Modified Eagle Medium (DMEM). The culture broth was removed from the wells in which the cells were cultured overnight, and replaced with FBS-free DMEM, and then cultured for an hour. Then, the sonosensitive liposome were added thereto, and cultured for 3 hours. To compare and analyze the cancer cell death according to the ultrasound irradiation, each of the designated wells was treated with a sonosensitive liposome (Sono liposome (US+)) irradiated with ultrasound and a sonosensitive liposome (Sono liposome (US−)) not irradiated with ultrasound. […] The cancer cell death effects were compared and analyzed by adding 200 μL of DMSO to formed formazan in each well and measuring the absorbance at a wavelength of 540 nm using an ELISA reader.
compound,measurement,value
COc1cccc2c1C(=O)c1c(O)c3c(c(O)c1C2=O)C[C@@](O)(C(=O)CO)C[C@@H]3O[C@H]1C[C@H](N)[C@H](O)[C@H](C)O1 [doxorubicin],cell death effect on cancer cells,had a cancer cell death effect
